Measurements from ChEMBL document CHEMBL1152258, “Imidazo[5,1-f][1,2,4]triazin-2-amines as novel inhibitors of polo-like kinase 1” (Bioorg Med Chem Lett, 2008).

What was measured:
[1] = molecular target: Serine/threonine-protein kinase PLK1 (Homo sapiens, UniProt P53350); test: Inhibition of PLK1 expressed in baculovirus infected Trichoplusia ni cells
[2] = AUC in po dosed mouse; assay type: ADME, organism-based; details: plasma
[3] = test system: NCI-H460; test: Antiproliferative activity against human H460 cells after 72 hrs; assay type: functional, cell-based; details: NCI-H460, 72 h
[4] = test system: HCT-116; test: Antiproliferative activity against human HCT116 cells after 72 hrs; assay type: functional, cell-based; details: HCT-116, 72 h
[5] = test system: PC-3; test: Antiproliferative activity against human PC3 cells after 72 hrs; assay type: functional, cell-based; details: PC-3, 72 h
[6] = Oral bioavailability in mouse; assay type: ADME, organism-based; details: in vivo
[7] = Clearance in mouse at 5 mg/kg, iv; assay type: ADME, organism-based; set-up: dose 5 mg/kg, route intravenous; details: in vivo
[8] = test system: RKO; test: Antiproliferative activity against human RKO cells after 72 hrs; assay type: functional, cell-based
[9] = molecular target: Serine/threonine-protein kinase PLK3 (Homo sapiens, UniProt Q9H4B4); test: Inhibition of PLK3 expressed in baculovirus infected Trichoplusia ni cells
Chain of Serine/threonine-protein kinase PLK3 (Q9H4B4 whole entry): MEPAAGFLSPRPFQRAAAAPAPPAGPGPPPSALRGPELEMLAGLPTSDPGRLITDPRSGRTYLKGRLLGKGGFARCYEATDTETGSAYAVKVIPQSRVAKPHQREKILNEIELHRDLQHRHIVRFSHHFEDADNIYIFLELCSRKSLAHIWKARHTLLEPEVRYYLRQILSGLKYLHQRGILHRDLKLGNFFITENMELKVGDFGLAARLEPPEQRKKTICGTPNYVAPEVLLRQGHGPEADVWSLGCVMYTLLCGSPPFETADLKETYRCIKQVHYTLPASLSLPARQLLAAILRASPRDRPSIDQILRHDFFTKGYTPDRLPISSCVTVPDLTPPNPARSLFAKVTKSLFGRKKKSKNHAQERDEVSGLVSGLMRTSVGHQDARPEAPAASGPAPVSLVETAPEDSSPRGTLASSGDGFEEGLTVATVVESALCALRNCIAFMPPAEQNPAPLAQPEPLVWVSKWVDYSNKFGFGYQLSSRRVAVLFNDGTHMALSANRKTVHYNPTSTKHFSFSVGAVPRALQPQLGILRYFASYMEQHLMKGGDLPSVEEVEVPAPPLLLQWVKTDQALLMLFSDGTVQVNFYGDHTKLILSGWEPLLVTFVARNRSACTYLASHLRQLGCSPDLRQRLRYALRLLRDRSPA

[10] = Volume of distribution at steady state in mouse at 5 mg/kg, iv; assay type: ADME, organism-based; set-up: dose 5 mg/kg, route intravenous; details: in vivo, read-out: Vdss
[11] = test system: MCF7; test: Antiproliferative activity against human MCF7 cells after 72 hrs; assay type: functional, cell-based; details: MCF7, 72 h
[12] = Volume of distribution at steady state in mouse at 2.9 mg/kg, iv; assay type: ADME, organism-based; set-up: dose 2.9 mg/kg, route intravenous; details: in vivo, read-out: Vdss
[13] = Clearance in mouse at 2.9 mg/kg, iv; assay type: ADME, organism-based; set-up: dose 2.9 mg/kg, route intravenous; details: in vivo

Chain of Serine/threonine-protein kinase PLK1 (P53350 whole entry): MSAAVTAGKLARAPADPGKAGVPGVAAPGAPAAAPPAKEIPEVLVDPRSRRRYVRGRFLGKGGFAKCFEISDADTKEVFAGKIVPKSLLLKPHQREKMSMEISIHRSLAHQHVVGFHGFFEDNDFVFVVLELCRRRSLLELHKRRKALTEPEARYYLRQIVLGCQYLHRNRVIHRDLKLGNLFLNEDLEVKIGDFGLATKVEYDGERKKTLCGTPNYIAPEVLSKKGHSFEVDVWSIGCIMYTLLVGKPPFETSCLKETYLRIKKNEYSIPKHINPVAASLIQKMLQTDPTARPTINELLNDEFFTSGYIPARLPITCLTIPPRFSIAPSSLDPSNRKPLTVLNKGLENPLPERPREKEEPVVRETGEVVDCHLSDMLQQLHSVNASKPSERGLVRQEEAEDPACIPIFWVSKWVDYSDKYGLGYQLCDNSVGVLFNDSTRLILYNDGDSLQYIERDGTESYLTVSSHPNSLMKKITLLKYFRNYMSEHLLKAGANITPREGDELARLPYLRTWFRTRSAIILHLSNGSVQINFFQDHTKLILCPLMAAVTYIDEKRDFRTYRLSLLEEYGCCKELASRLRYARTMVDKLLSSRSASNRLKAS

Cc1nc(-c2ccccc2)n2nc(NCc3ccccc3)ncc12
IC50 [1]: 1.5 µM

Cc1nc(-c2ccccc2)n2nc(N)ncc12
IC50 [1]: > 10 µM

Cc1nc(-c2ccccc2)n2nc(NC3CCCCC3)ncc12
IC50 [1]: > 10 µM

COc1cc(Nc2ncc3c(C)nc(-c4ccccc4Br)n3n2)cc(OC)c1OC
IC50 [1]: 2.67 µM

Cc1nc(-c2ccccc2)n2nc(Nc3ccccc3)ncc12
IC50 [1]: 1.2 µM

COc1ccc(Nc2ncc3c(C)nc(-c4ccccc4)n3n2)cc1
IC50 [1]: 0.68 µM

COc1cc(Nc2ncc3c(C)nc(-c4ccc(C(F)(F)F)cc4)n3n2)cc(OC)c1OC
IC50 [1]: 1.06 µM

COc1cc(Nc2ncc3c(C)nc(-c4ccccc4[N+](=O)[O-])n3n2)cc(OC)c1OC
IC50 [1]: 1.98 µM

COc1ccccc1-c1nc(C)c2cnc(Nc3cc(OC)c(OC)c(OC)c3)nn12
IC50 [1]: 5.66 µM

COc1cc(Nc2ncc3c(C)nc(-c4ccccc4)n3n2)cc(OC)c1OC
AUC [2]: 301 ng·h/mL
IC50 [3]: 6.5 µM
IC50 [4]: 5.3 µM
IC50 [5]: 12 µM
bioavailability [6]: 10%
clearance [7]: 53 mL/min/kg
IC50 [8]: 3.7 µM
IC50 [9]: 0.09 µM
Vd [10]: 1.6 L/kg
IC50 [11]: 5.2 µM

COc1cc(Nc2ncc3c(C)nc(-c4cccc(C(F)(F)F)c4)n3n2)cc(OC)c1OC [GW837331X]
AUC [2]: 264 ng·h/mL
IC50 [3]: 5.4 µM
Vd [12]: 2.3 L/kg
IC50 [4]: 3.9 µM
IC50 [5]: 7.8 µM
bioavailability [6]: 18%
IC50 [8]: 3.2 µM
IC50 [11]: 4.8 µM
clearance [13]: 81 mL/min/kg

COc1cc(Nc2ncc3c(C)nc(-c4cccc(Br)c4)n3n2)cc(OC)c1OC
IC50 [3]: 5.8 µM
IC50 [4]: 7.8 µM
IC50 [5]: 26 µM
IC50 [8]: 7.6 µM
IC50 [1]: 0.07 µM
IC50 [11]: 11 µM

Cc1nc(-c2ccccc2)n2nc(NCCc3ccncc3)ncc12
IC50 [1]: > 10 µM

Cc1nc(-c2ccccc2)n2nc(Nc3ccc([N+](=O)[O-])cc3)ncc12
IC50 [1]: 2.81 µM

COc1ccc(Nc2ncc3c(C)nc(-c4ccccc4)n3n2)cc1OC
IC50 [1]: 0.09 µM

Cc1nc(-c2ccccc2)n2nc(NCCCN3CCOCC3)ncc12 [GW874091X]
IC50 [1]: > 10 µM

COc1cc(Nc2ncc3c(C)nc(-c4ccc(F)cc4)n3n2)cc(OC)c1OC
IC50 [1]: 0.08 µM

Cc1nc(-c2ccccc2)n2nc(Nc3cccc(C(F)(F)F)c3)ncc12
IC50 [1]: > 10 µM

COc1cccc(Nc2ncc3c(C)nc(-c4ccccc4)n3n2)c1
IC50 [1]: 0.3 µM

Cc1nc(-c2ccccc2)n2nc(Nc3ccc(OCCN(C)C)cc3)ncc12
IC50 [1]: 0.38 µM

Cc1nc(-c2ccccc2)n2nc(Nc3ccc(S(N)(=O)=O)cc3)ncc12
IC50 [1]: 2.74 µM
